Columns and labels:
[1] = Deliquescency of powder at 25° C., normal pressure, 75% RH, observed with naked eyes; format: physicochemical; conditions: relative humidity 75% RH
Procedure: The solid oxidized glutathione salt obtained as described above has low deliquescency and high water solubility. The deliquescency of the solid oxidized glutathione can be evaluated by allowing a powder of the salt to stand in an environment at a temperature of 25° C., normal pressure, e.g. 1 atmospheric pressure, and a relative humidity of 75% RH, and observing whether deliquescence starts or not with naked eyes.
Each of the powders of the solid-state oxidized glutathione salt obtained in the above respective Examples was allowed to stand in atmospheric condition of a temperature of 25° C., normal pressure and a relative humidity of 75% RH. After 2 hours or 24 hours, it was determined whether or not deliquescence was is present by observing the occurrence of shape change with naked eyes. For comparison, the deliquescencies of the above commercially available solid oxidized glutathiones were investigated in the same manner.

[2] = Solubility in water at 25° C. under normal pressure; format: physicochemical; conditions: supernatant by HPLC
Procedure: The solubility of the solid oxidized glutathione salt of the present invention in water at temperature of 25° C. can be calculated according to the following formula, and the solubility is, for example, 10 mass % or more, preferably 20 mass % or more, and more preferably 30 mass % or more.
Solubility (%)=mass of dissolved oxidized glutathione/(mass of water+mass of dissolved oxidized glutathione)×100
Evaluation 1: Solubility in water at 25° C. under normal pressure and deliquescency of oxidized glutathione salt
Each of the powders of the solid-state oxidized glutathione salt obtained in the above respective Examples was dissolved in water until the powder was not further dissolved. After each slurry was stirred for 30 minutes or longer, the supernatant was obtained and the concentrations of each oxidized glutathione and salt were calculated using HPLC. For comparison, the solubilities of the following conventionally known solid oxidized glutathiones were investigated in the same manner as the above.

Substance	Deliquescency 2 hours ([1]; after 2 hours)	Deliquescency 24 hours ([1]; after 24 hours)	Solubility [2]
oxidized glutathione hemicalcium salt [Example 6]	no	no	58 mass %
oxidized glutathione monoammonium salt [Example 2]	–	–	34.8 mass %
